# Measurements published in patent publication US20070275046A1, “Noval Surfactants and Applications Thereof” (TS PHARMA, priority 2003, published 2007).
# Key:
# Format in all cases: physicochemical
# [1] = Mechanical stability over time of the particles (particle size on storage)
# Procedure: (§1) The size and the mechanical stability over time of the particles obtained in the solution were measured after filtration by dynamic light diffraction (High Performance Particle Sizer, Malvern). The nature of the particles obtained was studied by transmission electron microscopy after negative staining of the sample or after freeze-fracture (FIG. 4).
# (§2) The size and the mechanical stability over time of the particles obtained in the solution were measured after dynamic light diffraction filtration (High Performance Particle Sizer, Malvern). The nature of the particles obtained was studied by transmission electron microscopy after negative staining of the sample or after freeze-fracture. The critical aggregation concentration of these surfactants was determined by tensiometry or by spectrofluorimetry using the fluorescent label method. Furthermore, the Wilhelmy tensiometry technique made it possible to determine the maximum surface tensions and the area of the polar head at the water-air interface (FIG. 8). […] In order to cause this value to decrease or increase, it is necessary to, respectively, increase or decrease the length of the hydrocarbon-based chains. The phase transition temperature of these surfactants was determined by polarization spectrofluorimetry and by light scattering (FIG. 9).
# [2] = Shape and size of tubular vesicles from transmission electron micrographs (negative staining, freeze-fracture)
# Procedure: as §1
# The freeze-fracture analyses confirmed the formation of these tubular vesicles and their morphological characteristics, namely the presence of an inner aqueous cavity isolated from the outside medium (FIG. 5).
# The freeze-fracture analyses confirmed the formation of these tubular vesicles and their morphological characteristics, i.e. the presence of an inner aqueous cavity isolated from the outside medium.
# [3] = Release kinetics of encapsulated carboxyfluorescein by spectrofluorimetry; conditions: compared with encapsulation in egg yolk phosphatidylcholine; 25° C., Tris buffer pH 7.4, 4 h
# Procedure: The encapsulation capacity of the various compounds is determined by spectrofluorimetry using a fluorescent probe: 5 (6)-carboxyfluorescein. The release of this fluorescent label from the vesicles prepared according to standardized methods is measured.
# This study requires the preparation of a Tris buffer (15 mM and 150 mM NaCl) at pH 7.4, and also of a 120 mM carboxyfluorescein solution, also at pH 7.4.
# The compounds studied are weighed out (2.5 mg/ml) and are dissolved in a minimum amount of methanol. The solvent is evaporated off under reduced pressure in a rotary evaporator and the film thus obtained is dried with a stream of nitrogen. […]
# The fluorescence measurements were carried out using a Jobin-Yvon spectrofluorimeter (spectrofluoromax 2), equipped with a 150 W xenon lamp. […] The samples were analyzed at an excitation wavelength of 480 nm, and an emission wavelength of 530 nm for 4 hours. […]
# For each measurement, the initial fluorescence intensity (F0) is determined 30 seconds after the column filtration. The release is studied over a period of 4 h and the fluorescence intensity (Ft) is measured at regular intervals. The maximum fluorescence intensity (Fmax), which corresponds to 100% release, is obtained after tubular vesicle lysis obtained by the addition of Triton X100 (10% v/v). […]
# [4] = Phase transition temperature by polarization spectrofluorimetry (DPH probe) and light scattering; conditions: polarization of fluorescent probe DPH
# Procedure: as §2
# With R=C17H35 (derivative A1). The phase transition temperature was measured via detection of the polarization of a fluorescent probe, DPH, by spectrofluorimetry: Tm=54° C.
# [5] = Particle size by dynamic light diffraction / photon correlation spectroscopy (Malvern HPPS)
# Procedure: as §1
# The size and the mechanical stability over time of the particles obtained in the solution were measured after dynamic light diffraction filtration (High Performance Particle Sizer, Malvern). The nature of the particles obtained was studied by transmission electron microscopy after negative staining of the sample or after freeze-fracture. The critical aggregation concentration of these surfactants was determined by tensiometry or by spectrofluorimetry using the fluorescent label method. […] The phase transition temperature of these surfactants was determined by polarization spectrofluorimetry and by light scattering (FIG. 9).
# The size distribution of the particles was measured by photon correlation spectroscopy of light of samples diluted in water using a Malvern HPPS/NIBS device equipped with a 3 mW He/Ne laser and a 288-channel correlator equipped with an avalanche of photodiodes. […]
Compound,change in particle size on storage ([1]; aqueous dispersion of tubular vesicles),average cross section of the tubular vesicles [2] [nm],average length of the tubular vesicles [2] [nm],release kinetics of encapsulated carboxyfluorescein [3],phase transition temperature Tm [4] [°C],"mean hydrodynamic diameter of the tubular vesicles ([5]; tubular vesicles from lipid dispersed in water at 2.5 mg.ml^-1, measured by light diffraction) [nm]","IP ([5]; tubular vesicles, light diffraction, printed with the mean hydrodynamic diameter)",mechanical stability of the liposomes formed in water ([1]; liposomes with conventional structures)
CCCCCCCCCCCCCCCCCNC(=O)OCC(CNC(=O)CCSCCC(=O)NC(CO)(CO)CO)OC(=O)NCCCCCCCCCCCCCCCCC (centres unmarked) [A1],no change in particle size is observed after one year of storage,38,247,slower release kinetics,54,132,0.35,
"CCCCCCCCCCCCCCCCCC(=O)OCC(CNC(=O)CCSCCC(=O)NC(CO)(CO)CO)OC(=O)CCCCCCCCCCCCCCCCC (centres unmarked) [B, reference compound]",,,,,,,,only a few hours
